US7825264B2, “Substituted heterocycles, their use as medicament, and pharmaceutical preparations comprising them” (sanofi-aventis, priority 2005, dated 2010)

target: T1, Human Kv1.5 channels (Homo sapiens, UniProt P22460); test: Activity on the Kv1.5 channel: two-microelectrode voltage clamp on Xenopus oocytes expressing Kv1.5; type: cell-based; settings: human Kv1.5 expressed in Xenopus oocytes, room temperature, Hill equation; read-out: Kv1.5 IC-50
T1 construct: expressed in transfected cells; host or cells: Xenopus laevis oocytes injected with RNA synthesized in vitro
Experimental: Determination of the Activity on the Kv1.5 Channel
Human Kv1.5 channels were expressed in xenopus oocytes. For this purpose, firstly oocytes were isolated from Xenopus laevis and defolliculated. Kv1.5-encoding RNA synthesized in vitro was then injected into these oocytes. After Kv1.5 protein expression for 1-7 days, Kv1.5 currents were measured on the oocytes using the two-microelectrode voltage clamp technique. The Kv1.5 channels were in this case usually activated with voltage jumps lasting 500 ms to 0 mV and 40 mV. A solution of the following composition flowed through the bath: NaCl 96 mM, KCl 2 mM, CaCl2 1.8 mM, MgCl2 1 mM, HEPES 5 mM (titrated to pH 7.4 with NaOH). These experiments were carried out at room temperature. The following were employed for data acquisition and analysis: Geneclamp amplifier (Axon Instruments, Foster City, USA) and MacLab D/A converter and software (ADInstruments, Castle Hill, Australia). The substances of the invention were tested by adding them in various concentrations to the bath solution. The effects of the substances were calculated as percent inhibition of the Kv1.5 control current which was obtained when no substance was added to the solution. The data were then extrapolated using the Hill equation in order to determine the inhibitory concentrations IC50 for the respective substances.

T1 sequence (P22460 whole entry): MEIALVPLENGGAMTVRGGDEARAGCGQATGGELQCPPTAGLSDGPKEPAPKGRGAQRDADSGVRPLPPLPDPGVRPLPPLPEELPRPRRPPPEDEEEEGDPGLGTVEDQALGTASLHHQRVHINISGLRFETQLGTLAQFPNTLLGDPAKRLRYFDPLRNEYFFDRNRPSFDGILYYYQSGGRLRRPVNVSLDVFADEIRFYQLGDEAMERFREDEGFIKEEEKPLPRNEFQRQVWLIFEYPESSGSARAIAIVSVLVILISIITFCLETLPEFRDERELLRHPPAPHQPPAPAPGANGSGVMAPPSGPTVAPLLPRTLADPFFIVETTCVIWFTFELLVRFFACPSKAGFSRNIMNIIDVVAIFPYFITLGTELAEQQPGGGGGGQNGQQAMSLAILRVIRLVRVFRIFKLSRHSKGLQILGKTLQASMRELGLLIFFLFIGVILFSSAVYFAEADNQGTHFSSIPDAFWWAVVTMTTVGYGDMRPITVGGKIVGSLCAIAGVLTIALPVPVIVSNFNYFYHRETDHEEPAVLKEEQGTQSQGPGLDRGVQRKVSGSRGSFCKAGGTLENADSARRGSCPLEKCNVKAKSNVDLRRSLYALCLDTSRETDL

SMILES	IC50 [µM]
N#Cc1ccc(CO[C@H](c2ccc(F)c(F)c2)[C@H](c2ccc(F)cc2)N2CCCC2=O)cc1 (racemic) [Example 69]	1.6
O=C1CCCN1[C@@H](c1ccccc1)[C@H](Oc1ccccn1)c1ccccc1 (racemic) [Example 70]	2.3
CCCO[C@H](c1ccccc1)[C@H](c1ccccn1)N1CCCC1=O (racemic) [Example 71]	1.6
O=C1CCCN1[C@@H](c1ccccc1)[C@H](OCc1ccccc1)c1ccc(Cl)cc1 (racemic) [Example 72]	2.1
COc1ccc([C@@H](OCC2CC2)[C@H](c2ccc(F)cc2)N2CCCC2=O)cc1 (racemic) [Example 73]	1
O=C1CCCN1[C@@H](c1ccc(F)cc1)[C@@H](OCC1CC1)c1cccc2cccnc12 (racemic) [Example 75]	1.4
CCCO[C@H](c1ccccn1)[C@H](c1ccccc1)N1CCCC1=O (racemic) [Example 76]	2.7
CO[C@H](c1ccc(F)cc1)[C@H](c1ccccc1)N1CCCC1=O (racemic) [Example 77]	2.7
CO[C@H](C1CCCCC1)[C@H](c1ccc(F)cc1)N1CCCC1=O (racemic) [Example 78]	3.3
CO[C@H](c1ccc(F)cc1)[C@H](c1ccc(F)cc1)N1CCCC1=O (racemic) [Example 79]	3.4
O=C1CCCN1[C@@H](c1ccc(F)cc1)[C@H](OCC1CC1)c1ccc(C(F)(F)F)cc1 (racemic) [Example 80]	1.4
COc1ccc(CO[C@H](c2ccc(F)c(F)c2)[C@H](c2cccnc2)N2CCCC2=O)cc1 (racemic) [Example 81]	3.2
CO[C@@H](c1ccccc1)[C@H](c1ccccc1)N1CCCC1=O (racemic) [Example 82]	3.7
O=C1CCCN1[C@@H](c1ccc(F)cc1)[C@H](OCC1CC1)C1CCCCC1 (racemic) [Example 83]	1.8
O=C1CCCN1[C@@H](c1ccc(F)cc1)[C@@H](OCC1CC1)c1ccnc2ccccc12 (racemic) [Example 84]	2.4
COc1ccc(CO[C@H](c2cccnc2)[C@H](c2ccc(F)cc2)N2CCCC2=O)cc1 (racemic) [Example 86]	2.9
CO[C@H](c1ccc(F)c(F)c1)[C@H](c1ccc(F)cc1)N1CCCC1=O (racemic) [Example 87]	4.2
CO[C@@H](c1ccc(F)cc1)[C@H](c1ccccc1)N1CCCC1=O (racemic) [Example 88]	4
N#Cc1ccc(O[C@@H](c2cccc3ccccc23)[C@H](c2ccc(F)cc2)N2CCCC2=O)cc1 (racemic) [Example 89]	3.5
CC1CCC(=O)N1[C@@H](c1ccc(F)cc1)[C@H](Oc1ccc(C#N)cc1)c1ccc(F)c(F)c1 (mixture of isomers) [Example 90]	4.1
O=C1CCCN1[C@@H](c1ccccc1)[C@H](OCC1CC1)c1ccncc1 (racemic) [Example 91]	4
N#Cc1ccc(O[C@H](c2ccc(F)cc2)[C@H](c2ccc(F)cc2)N2CCCC2=O)cc1 (racemic) [Example 92]	3.8
O=C1CCCCN1[C@@H](c1ccc(F)cc1)[C@H](OCC1CC1)c1cccc2cccnc12 (racemic) [Example 93]	4.1
COc1ccc(CO[C@H](c2ccc(F)cc2)[C@@H](c2ccc(F)cc2)N2CCCC2=O)cc1 (racemic) [Example 94]	5.3
COc1ccc(CO[C@H](c2ccc(F)cc2)[C@@H](c2ccccc2)N2CCCC2=O)cc1 (racemic) [Example 95]	5.2
N#Cc1ccc(O[C@H](c2ccccc2)[C@H](c2ccccn2)N2CCCC2=O)cc1 (racemic) [Example 96]	5.1

SMILES	IC50 [µM]
CCCO[C@H](c1ccncc1)[C@H](c1ccccc1)N1CCCC1=O (racemic) [Example 97]	5.4
COc1ccc(CO[C@H](c2ccc(F)cc2)[C@H](c2cccc3cccnc23)N2CCCC2=O)cc1 (racemic) [Example 98]	5.5
CO[C@H](c1ccc(F)c(F)c1)[C@H](c1ccc(F)cc1)N1CCCCC1=O (racemic) [Example 99]	6.3
O=C1CCCN1[C@@H](c1cccnc1)[C@H](OCc1ccc(Cl)cc1)c1ccc(F)c(F)c1 (racemic) [Example 100]	5.4
O=C1CCCN1[C@@H](c1ccc(F)cc1)[C@H](OCc1ccc(Cl)cc1)c1ccc(F)c(F)c1 (racemic) [Example 101]	5.6
N#Cc1ccc(O[C@H](c2ccc(F)c(F)c2)[C@@H](c2ccc(F)cc2)N2CCCC2=O)cc1 (racemic) [Example 102]	5.4
O=C1CCCN1[C@@H](c1ccccn1)[C@H](OCCF)c1ccccc1 (racemic) [Example 104]	6.7
N#Cc1ccc(O[C@H](c2cc(F)cc(F)c2)[C@H](c2ccc(F)cc2)N2CCCC2=O)cc1 (racemic) [Example 106]	8.3
N#Cc1ccc(O[C@H](c2ccc(F)c(F)c2)[C@H](c2ccc(F)cc2)N2CCCCC2=O)cc1 (racemic) [Example 107]	9.6
N#Cc1ccc(O[C@H](c2ccc(OC(F)(F)F)cc2)[C@H](c2ccc(F)cc2)N2CCCC2=O)cc1 (racemic) [Example 108]	9
N#Cc1ccc(O[C@@H](c2ccnc3ccccc23)[C@H](c2ccc(F)cc2)N2CCCC2=O)cc1 (racemic) [Example 109]	9.6
COc1ccc([C@@H](Oc2ccc(C(C)=O)cc2)[C@H](c2ccc(F)cc2)N2CCCC2=O)cc1 (racemic) [Example 110]	9.7
N#Cc1ccc(O[C@H](c2ccc(F)c(F)c2)[C@H](c2ccc(F)cc2)N2CCCS2(=O)=O)cc1 (racemic) [Example 112]	~10
O=C1CCCN1[C@@H](c1ccc(F)cc1)[C@H](Oc1ccccn1)c1ccc(F)c(F)c1 (racemic) [Example 114]	~10
N#Cc1ccc(O[C@H](c2ccc(F)c(F)c2)[C@H](c2cccnc2)N2CCCC2=O)cc1 (racemic) [Example 115]	~10
N#Cc1ccc(O[C@H](c2ccc(C(F)(F)F)cc2)[C@H](c2ccc(F)cc2)N2CCCC2=O)cc1 (racemic) [Example 116]	~10
O=C1CCCN1[C@@H](c1ccc(F)cc1)[C@H](OCC1CC1)c1ccc(F)cc1 (racemic) [Example 117]	0.3
O=C1CCCCN1[C@@H](c1ccc(F)cc1)[C@H](OCCCC(F)(F)F)c1cccnc1 (racemic) [Example 118]	0.8
O=C1CCCN1[C@@H](c1cccc2cccnc12)[C@H](OCC1CC1)c1cccnc1 (racemic) [Example 119]	0.8
CCCO[C@H](c1ccccc1)[C@H](c1ccccc1)N1CCCS1(=O)=O [Example 7, (1S,2R)-2-(1,2-Diphenyl-2-propoxyethyl)isothiazolidine-1,1-dioxide]	0.6
CC(OCC1CC1)(c1ccccc1)C(c1ccccc1)N1CCCC1=O (stereo not shown) [Example 8, 1-(2-Cyclopropylmethoxy-1,2-diphenylpropyl)pyrrolidin-2-one]	1.2
CCCO[C@H](c1ccccc1)[C@H](c1ccccc1)N1CCCC1=O [Example 15]	0.16
CCCO[C@@H](c1ccccc1)[C@@H](c1ccccc1)N1CCCC1=O [Example 18]	0.4
CCCOC(c1ccc(OC)cc1)C(c1ccccc1)N1CCCC1=O (stereo not shown) [Example 23]	0.65
O=S1(=O)CCCN1[C@H](c1ccccc1)[C@@H](OCC1CC1)c1ccccc1 [Example 52]	2
CCCO[C@@H](c1ccccc1)[C@@H](c1ccccc1)N1CCCS1(=O)=O [Example 54]	1.7
